Source: patent US20140271822A1, “MODIFIED DOCETAXEL LIPOSOME FORMULATIONS” (Mallinckrodt LLC, priority 2013, published 2014)
“Also recorded” adds a separate entry of the source.

Assays:
[1] = Tissue distribution in mice with PC3 xenografts; conditions: docetaxel in tissue
Protocol: (§1) The plasma pharmacokinetics and distribution were studied in male athymic nude mice each implanted subcutaneously with PC3 cells (human prostate cancer). Once tumors reached a volume of 100-300 mm^3, animals were randomized into 5 groups.
(§2) Three animals were sacrificed at 5 minutes and 1, 4, 24, 48, 72, 120 and 168 hours post injection. Blood samples were taken for pharmacokinetic analysis at each time. Pharmacokinetic parameters of TD-1 and docetaxel were calculated using the Phoenix WinNonLin software by non-compartment analysis modeling.
In addition to the plasma levels and pharmacokinetic calculations described above, tissue distribution was also evaluated. Tissues harvested from each animal described in Table 5 and frozen before analysis included: tumor, liver, spleen, and kidney.

[2] = test system: MDA-MB-435/PTK7 (human breast) tumor xenografts; test: Antitumor activity, MDA-MB-435/PTK7 breast xenograft; type: in vivo, athymic nude mice
Protocol: (§3) The studies were of broadly similar design. Tumor cell lines were implanted subcutaneously into the flank of nude (immunodeficient) mice and allowed to grow to a fixed size. […] In each case, where possible, doses were selected as providing equivalent levels of toxicity/tolerance. […] Tumor volume was analyzed to determine tumor growth delay (TGD) and partial regression. Mice were removed from the study if they lost 20% of their initial bodyweight or became moribund or if their tumor volume exceeded 2500 mm^3 or the tumor ulcerated. If less than half of the initial cohort of mice remained, that group was no longer graphed or included in further tumor analysis. However, any remaining animals were followed until completion of the in-life observation period and included in a survival analysis.

[3] = mouse, in vivo
Protocol: (§4) The plasma pharmacokinetics and distribution were studied in female athymic nude mice each implanted subcutaneously with A549 cells (human non-small cell lung cancer). Once tumors reached a volume of 100-300 mm^3, animals were randomized into 4 groups.
(§5) Three animals were sacrificed at 1, 4, 24, 72 (3 days), 168 (7 days), 216 (9 days), 336 (14 days), 432 (18 days) and 504 hours (21 days) post injection. Blood samples were taken for pharmacokinetic analysis at each time point. Pharmacokinetic parameters of TD-1 and docetaxel were calculated using the Phoenix WinNonLin software by non-compartment analysis modeling.

[4] = test system: A549 human NSCLC tumor xenografts; test: Antitumor activity, A549 NSCLC xenograft, two doses 21 days apart; conditions: for Median Survival / Partial Tumor Regression (%) / TGD / TGD (%): two doses 21 days apart
Protocol: The studies were of broadly similar design. Tumor cell lines were implanted subcutaneously into the flank of nude (immunodeficient) mice and allowed to grow to a fixed size. […] In each case, where possible, doses were selected as providing equivalent levels of toxicity/tolerance. The highest doses of TD-1 were usually limited by the volume that could be administered. Tumor volume was analyzed to determine tumor growth delay (TGD) and partial regression. Mice were removed from the study if they lost 20% of their initial bodyweight or became moribund or if their tumor volume exceeded 2500 mm^3 or the tumor ulcerated. If less than half of the initial cohort of mice remained, that group was no longer graphed or included in further tumor analysis. However, any remaining animals were followed until completion of the in-life observation period and included in a survival analysis.

[5] = test system: human A549 NSCLC tumor xenografts; test: Antitumor activity, A549 NSCLC xenograft, single dose; type: in vivo, athymic nude mice
Protocol: as §3

[6] = test system: A431 human epidermoid tumor xenografts; test: Antitumor activity, A431 epidermoid xenograft; type: in vivo, athymic nude mice
Protocol: as §3

[7] = test system: human PC3 (prostate) tumor xenografts; test: Antitumor activity, PC3 prostate xenograft; type: in vivo, athymic nude mice; conditions: docetaxel 18 and 27 mg/kg
Protocol: as §3

[8] = test system: HT1080/PTK7 human fibrosarcoma tumor xenografts; test: Antitumor activity, HT1080/PTK7 fibrosarcoma xenograft; type: in vivo, athymic nude mice
Protocol: as §3

in vivo [9] = conditions: male, athymic nude, mouse, plasma, iv, 19 mg/kg
Protocol: as §1, §2

in vivo [10] = conditions: female, athymic nude, mouse, iv
Protocol: as §4, §5

[11] = Plasma pharmacokinetics in nude mice bearing PC3 xenografts; conditions: single iv; for plasma docetaxel concentrations falling below the levels of detection after: free drugs
Protocol: as §1, §2

[12] = test system: human A253 (Head & Neck) tumor xenografts; test: Antitumor activity, A253 head & neck xenograft; type: in vivo, athymic nude mice; conditions: for TGI (%): day 31 post treatment
Text: The studies were of broadly similar design.

[13] = Tissue distribution in mice with A549 xenografts; conditions: for Kidney AUC / Liver AUC / Spleen AUC / Tumor AUC: docetaxel in tissue
Protocol: as §4
Three animals were sacrificed at 1, 4, 24, 72 (3 days), 168 (7 days), 216 (9 days), 336 (14 days), 432 (18 days) and 504 hours (21 days) post injection. Blood samples were taken for pharmacokinetic analysis at each time point.

[14] = dose 19 mg/kg (docetaxel equivalent)
[15] = 30 mg/kg (docetaxel equivalent) single iv
[16] = docetaxel in plasma, dose 19 mg/kg (docetaxel equivalent)
[17] = TD-1 in plasma, dose 11 mg/kg (docetaxel equivalent)
[18] = docetaxel in plasma, dose 11 mg/kg (docetaxel equivalent)

CC(=O)O[C@@]12CO[C@@H]1C[C@H](O)[C@@]1(C)C(=O)[C@H](O)C3=C(C)[C@@H](OC(=O)[C@H](O)[C@@H](NC(=O)OC(C)(C)C)c4ccccc4)C[C@@](O)([C@@H](OC(=O)c4ccccc4)[C@H]21)C3(C)C [Docetaxel, docetaxel]
Kidney AUC [1, 14]: 73 µg·h/g | Liver AUC [1, 14]: 50 µg·h/g | Spleen AUC [1, 14]: 94 µg·h/g | Tumor AUC [1, 14]: 896 µg·h/g | Median Survival ([2]; 9 mg/kg single iv): 15 days | Partial Tumor Regression (%) ([2]; 9 mg/kg single iv): 0% | TGD ([2]; 9 mg/kg single iv): 1 | TGD (%) ([2]; 9 mg/kg single iv): 9% | Median Survival ([2]; 18 mg/kg single iv): 28 days | Partial Tumor Regression (%) ([2]; 18 mg/kg single iv): 13% | TGD ([2]; 18 mg/kg single iv): 10 | TGD (%) ([2]; 18 mg/kg single iv): 91% | TGI (%) ([2]; 18 mg/kg single iv): 26% | Median Survival ([2]; 27 mg/kg single iv): 35 days | Partial Tumor Regression (%) ([2]; 27 mg/kg single iv): 38% | TGD ([2]; 27 mg/kg single iv): 18 | TGD (%) ([2]; 27 mg/kg single iv): 164% | TGI (%) ([2]; 27 mg/kg single iv): 42% | tumor growth ([2]; docetaxel 18 and 27 mg/kg): inhibited tumor growth | plasma docetaxel detectable for [3]: only four hours | Median Survival ([4]; 18 mg/kg): 56 days | Partial Tumor Regression (%) ([4]; 18 mg/kg): 0% | TGD ([4]; 18 mg/kg): 19 | TGD (%) ([4]; 18 mg/kg): 66% | Median Survival ([4]; 27 mg/kg): 100 days | Partial Tumor Regression (%) ([4]; 27 mg/kg): 10% | TGD ([4]; 27 mg/kg): 41 | TGD (%) ([4]; 27 mg/kg): 141% | survival compared to saline ([4]; all dose levels, p<0.05): increased survival significantly compared to saline | tumor growth compared to saline ([4]; docetaxel 18 and 27 mg/kg, days 0 and 21, day 37): inhibited tumor growth; also recorded: significantly smaller tumors than saline | Median Survival ([5]; 10 mg/kg single iv): 96 days | Partial Tumor Regression (%) ([5]; 10 mg/kg single iv): 0% | TGI (%) ([5]; 10 mg/kg single iv): 0% | Partial Tumor Regression (%) ([5]; 20 mg/kg single iv): 0% | TGI (%) ([5]; 20 mg/kg single iv): 4% | Partial Tumor Regression (%) [5, 15]: 10% | TGI (%) [5, 15]: 38% | effect on tumor volumes and survival ([5]; docetaxel 10, 20, 30 mg/kg): failed to reduce A549 tumor volumes significantly or extend survival | Median Survival ([6]; 20 mg/kg single iv): 17 days | Partial Tumor Regression (%) ([6]; 20 mg/kg single iv): 63% | TGD ([6]; 20 mg/kg single iv): 13 | TGD (%) ([6]; 20 mg/kg single iv): 1408% | TGI (%) ([6]; 20 mg/kg single iv): 123% | Median Survival ([6]; 30 mg/kg single iv): 9 days | Partial Tumor Regression (%) ([6]; 30 mg/kg single iv): 50% | TGI (%) ([6]; 30 mg/kg single iv): 120% | tumor growth compared to saline ([6]; docetaxel 20 and 30 mg/kg, day 7): inhibited tumor growth; also recorded: significantly smaller tumors than saline | tumor growth [7]: inhibited tumor growth | survival compared to saline ([7]; p<0.05): increased survival significantly more than saline | Median Survival ([8]; 9 mg/kg single iv): 11.5 days | Partial Tumor Regression (%) ([8]; 9 mg/kg single iv): 0% | TGI (%) ([8]; 9 mg/kg single iv): 52% | Median Survival ([8]; 18 mg/kg single iv): 23 days | Partial Tumor Regression (%) ([8]; 18 mg/kg single iv): 10% | TGD ([8]; 18 mg/kg single iv): 7 | TGD (%) ([8]; 18 mg/kg single iv): 70% | TGI (%) ([8]; 18 mg/kg single iv): 31% | Median Survival ([8]; 27 mg/kg single iv): 30 days | Partial Tumor Regression (%) ([8]; 27 mg/kg single iv): 70% | TGD ([8]; 27 mg/kg single iv): 16 | TGD (%) ([8]; 27 mg/kg single iv): 160% | TGI (%) ([8]; 27 mg/kg single iv): 89% | survival ([8]; docetaxel): did not significantly increase survival | tumor growth compared to saline ([8]; docetaxel 27 mg/kg, day 14): inhibited tumor growth; also recorded: significantly smaller tumors than saline | AUC (in vivo [9]): 13000 ng·h/mL | Cmax (in vivo [9]): 13000 ng/mL | Vd (in vivo [9]): 16.1 L/kg | clearance (in vivo [9]): 25 mL/min/kg | half-life (in vivo [9]): 7.4 h | AUC(0-inf) (in vivo [10]; 30 mg/kg): 8800 ng·h/mL | Cmax (in vivo [10]; 30 mg/kg): 2700 ng/mL | Vd (in vivo [10]; 30 mg/kg): 16.1 L/kg | AUC(0-inf) (in vivo [10]; 50 mg/kg): 27000 ng·h/mL | Cmax (in vivo [10]; 50 mg/kg): 8600 ng/mL | Vd (in vivo [10]; 50 mg/kg): 37.2 L/kg | AUC/Dose [11, 16]: 0.7 | Cmax/Dose [11, 16]: 0.7 | plasma docetaxel concentrations falling below the levels of detection after [11]: 48 h | Median Survival ([12]; 10 mg/kg single iv): 64 days | TGD ([12]; 10 mg/kg single iv): 0 days | TGD (%) ([12]; 10 mg/kg single iv): 0% | TGI (%) ([12]; 10 mg/kg single iv): 0% | Median Survival ([12]; 20 mg/kg single iv): 62 days | TGD ([12]; 20 mg/kg single iv): 0 days | TGD (%) ([12]; 20 mg/kg single iv): 0% | TGI (%) ([12]; 20 mg/kg single iv): 0% | Median Survival [12, 15]: 73 days | TGD [12, 15]: 5 days | TGD (%) [12, 15]: 9% | TGI (%) [12, 15]: 12% | effect on tumor volumes and survival ([12]; docetaxel 10, 20, 30 mg/kg): failed to reduce A253 tumor volumes significantly or extend survival | tumor retained measurable levels of docetaxel through ([13]; docetaxel 50 mg/kg): 216 h | tissue concentrations of docetaxel fell below the limits of quantitation after ([13]; docetaxel 50 mg/kg, most of the tissues except tumor): 24 h | Kidney AUC ([13]; dose 30 mg/kg): 28 µg·h/g | Liver AUC ([13]; dose 30 mg/kg): 10 µg·h/g | Spleen AUC ([13]; dose 30 mg/kg): 77 µg·h/g | Tumor AUC ([13]; dose 30 mg/kg): 276 µg·h/g | Kidney AUC ([13]; dose 50 mg/kg): 179 µg·h/g | Liver AUC ([13]; dose 50 mg/kg): 37 µg·h/g | Spleen AUC ([13]; dose 50 mg/kg): 162 µg·h/g | Tumor AUC ([13]; dose 50 mg/kg): 442 µg·h/g | docetaxel in liver, spleen and kidney fell below the levels of detection within ([13]; free docetaxel, after injection): ≤ 24 h | tumor docetaxel falling below the levels of quantitation (1.0 μg/g) after ([13]; intravenous injection of docetaxel): nine days

CC(=O)O[C@@]12CO[C@@H]1C[C@H](O)[C@@]1(C)C(=O)[C@H](O)C3=C(C)[C@@H](OC(=O)[C@H](OC(=O)CCCN4CCN(C)CC4)[C@@H](NC(=O)OC(C)(C)C)c4ccccc4)C[C@@](O)([C@@H](OC(=O)c4ccccc4)[C@H]21)C3(C)C [TD-1, 2′O-4-(4-methylpiperazin-1-yl)-butanoyl-docetaxel]
Tumor AUC ([1]; dose 11 mg/kg (docetaxel equivalent)): 314 µg·h/g | AUC [11, 17]: 5700 ng·h/mL | AUC/Dose [11, 17]: 0.4 | CL [11, 17]: 39.77 mL/min/kg | Cmax [11, 17]: 5000 ng/mL | Cmax/Dose [11, 17]: 0.4 | Vz [11, 17]: 26.01 L/kg | t1/2 [11, 17]: 7.6 h | AUC [11, 18]: 4100 ng·h/mL | AUC/Dose [11, 18]: 0.4 | CL [11, 18]: 43.18 mL/min/kg | Cmax [11, 18]: 1400 ng/mL | Cmax/Dose [11, 18]: 0.1 | Vz [11, 18]: 40.905 L/kg | t1/2 [11, 18]: 11 h | plasma docetaxel concentrations falling below the levels of detection after [11]: 48 h
